Test results as given in patent publication US20230346884A1, “Molecular Targets for Modulation of Dissociative and Associative States” (The Board of Trustees of the Leland Stanford Junior …, priority 2020, published 2023).
Entries after “also recorded” stand apart in the source; their conditions may differ.

Key:
[1] = system: retrosplenial cortex (RSP); assay: Widefield (pan-cortical) imaging of cortical activity in GCaMP6s mice; conditions: widefield imaging; i.p.; ketamine 50 mg/kg subanesthetic dose; other drugs at doses of b234
Procedure: (2 mg/kg), lidocaine (topical), LSD ((+)-Lysergic acid diethylamide (+)-tartrate (2:1), 0.3 mg/kg), and diazepam (2 mg/kg). […] For anti-depressant effects, human doses are typically 0.3-1 mg/kg, and in mouse 3-10 mg/kg.
As described^8, mice were anesthetized with isoflurane, the scalp was removed, the skull cleaned and dried, and a custom head-plate was cemented to contacts over the cerebellum and in front of the olfactory bulb. The skull was then covered in a thin layer of cyanoacrylate glue (Apollo 2000, Cyberbond), clear dental acrylic (Ortho-Jet, Lang Dental), and clear nail polish (Electron Microscopy Services). […] (0.1 mg/kg) was injected subcutaneously for pain management. […] Imaging was performed on a custom-built fluorescence microscope designed for high light collection efficiency and large field of view. […] Alternating 410 nm and 488 nm illumination for non-Ca^2+ dependent artifact removal was controlled using a microcontroller (Arduino) slaved to the frame output trigger of the camera.
Analysis was performed using custom MATLAB (MathWorks) scripts. Widefield imaging videos were registered to a 2D top-projection atlas generated from the annotated Allen Brain Atlas volume, version CCFv2, in MATLAB (MathWorks), using an affine transformation computed from four manually selected control points. Each video was DF/F normalized, using the median for each pixel over the entire time series as F. The 410 nm channel was then temporally smoothed using a moving average (width=400 ms). The smoothed 410 nm DF/F signal for each pixel was regressed onto the 488 nm DF/F signal for the corresponding pixel, and the regression coefficients were used to scale the 410 nm channel to the 488 nm channel. This scaled 410 nm DF/F signal was then subtracted from the 488 nm DF/F signal to produce a normalized signal for each pixel. For quantification, activity traces were extracted from points centered in five cortical regions (visual, somatosensory, parietal, motor, retrosplenial) on the left hemisphere of the brain. The video data was Gaussian smoothed spatially (radius=2 pixels). Similarly, for fiber photometry recordings, the 410 nm signal was regressed onto the 488 nm signal, the 410 nm signal was scaled by the regression coefficients, and then subtracted from the 488 nm signal.
Each trace (corresponding to either a fiber photometry signal, a cellular two-photon signal, a widefield regional centroid, a widefield pixel, an sEEG trace, or a smoothed spike rate Neuropixels trace) was z-scored, and the power spectral density (PSD) was then estimated using Welch's method (pwelch( ) in Matlab), with a window size of 10*fs (15*fs for human sEEG) where fs is the sampling rate of the signal. The average band power within a specified band (i.e. 1-3 Hz) was then computed by integrating the PSD estimate (bandpower in Matlab). For displaying the traces of individual cells, traces were each zscored by subtracting the mean value of the trace (across the whole recorded time window) and dividing by the standard deviation of the trace. Unless otherwise indicated, the PSD was computed across the time window from minutes 10 to 11 post-injection.

[2] = system: mice; assay: Hot plate test; conditions: for Dissociation-like behavior: disconnection between sensory-detection and affective responses: other drug classes, doses of b234
Procedure: Hot Plate Test: Mice were placed on the hot plate (Bioseb), which was set to 55° C. and surrounded by a clear circular perimeter. Mouse activity was recorded using two cameras from different angles. The experiment ended when the mouse jumped to escape or 90 seconds had elapsed. Care was taken to clean and dry the hot plate apparatus between animals. For optogenetic experiments, mice were connected to patch cords and then returned to a holding cage. Illumination began 30 seconds before mice were placed on the hot plate.

[3] = system: mice; assay: Open field test; format: in vivo, mouse; conditions: 5 min; vs saline; doses of b234
Excerpt: Open Field Test: Mice were placed in an evenly illuminated 50 cm×50 cm open field test box. Mouse position was captured using a webcam and Viewer software (Biobserve).

[4] = system: mice; assay: Tail suspension test; format: in vivo, mouse; conditions: PCP 5 mg/kg
Procedure: Tail Suspension Test: Mouse activity was recorded using a 60 Hz web camera. Struggling activity was quantified for minutes 2-10. […] Illumination began 30 seconds before tails were secured with tape and suspended from the beam. Mice were excluded if they climbed on their own tails.

[5] = system: mice; assay: Resident-intruder social interaction assay; format: in vivo, mouse; conditions: PCP 5 mg/kg
Procedure: Social Interaction Assay: Resident-intruder social interaction was recorded for two minutes. Interactions were defined as close physical proximity behaviors, including sniffing, touching, and following. […] Illumination began 30 seconds before the same-sex intruder mouse was introduced.

| Molecule | Cortical activity pattern: 1-3 Hz oscillation localized to retrosplenial cortex (RSP) [1] | Dissociation-like behavior: disconnection between sensory-detection and affective responses [2] | Open-field locomotion velocity [3] | Responsivity to salient stimuli (time-to-jump, rearing/socialization) ([2]; LSD 0.3 mg/kg) | Longer-timescale escape behavior [4] | Social behavior [5] |
| --- | --- | --- | --- | --- | --- | --- |
| CC12CC3CC(C)(C1)CC(N)(C3)C2 [Memantine, memantine] | did not elicit oscillation | – | – | – | – | – |
| CN1C(=O)CN=C(c2ccccc2)c2cc(Cl)ccc21 [diazepam] | Neither the GABAergic sedative diazepam nor the centrally-acting opioid-analgesic buprenorphine elicited the rhythm | did not recapitulate dissociative-like behavior | decreased velocity | – | – | – |
| CC(C)c1cccc(C(C)C)c1O [propofol] | elicited waves of cortical activity without RSP restriction | – | – | – | – | – |
| (+)-Lysergic acid diethylamide (+)-tartrate (2:1) [LSD] | did not elicit oscillation | disrupted neither sensory-detection nor affective responses | reducing locomotion in the stimulus-poor open-field; also recorded: decreased velocity | tended to increase responsivity to salient stimuli (decreased time-to-jump, increased rearing/socialization) | – | – |
| Cc1cccc([C@H](C)c2cnc[nH]2)c1C [dexmedetomidine] | elicited waves of cortical activity without RSP restriction | – | – | – | – | – |
| C[C@]12N[C@H](Cc3ccccc31)c1ccccc12 [MK-801] | induced the RSP-localized oscillation | – | – | – | – | – |
| c1ccc(C2(N3CCCCC3)CCCCC2)cc1 [PCP, phencyclidine] | induced the RSP-localized oscillation | recapitulated ketamine's behavioral disconnection between sensory-detection and affective responses in the hot-plate test | locomotion velocity was unchanged | – | inhibited longer-timescale escape and social behaviors | inhibited longer-timescale escape and social behaviors |
